Measurements: patent publication US20090022757A1, “Method for treating photoreceptor cell degeneration” (priority 2007, published 2009)

Legend:
[1] = tested on: rat retinal photoreceptor cells; assay: Pathological examination (damage score) of retinal photoreceptor cells in rats treated with different MNU dosages
[2] = tested on: rat retinal photoreceptor; assay: Electroretinogram of rats treated with different MNU dosages; details: for Number of Eyes with extinguished electroretinogram: n = 10

CN(N=O)C(N)=O [MNU, N-methyl-N-nitrosourea]
minimum dosage that could cause damage to the entire outer nuclear layer cell of rat retinal [1]: 40 mg/kg
Damage score of rat retinal photoreceptor cells ([1]; MNU 30 mg/kg, 12 h): 0.20 ± 0.42
Damage score of rat retinal photoreceptor cells ([1]; MNU 30 mg/kg, 1 d): 0.40 ± 0.52
Damage score of rat retinal photoreceptor cells ([1]; MNU 30 mg/kg, 3 d): 0.40 ± 0.52
Damage score of rat retinal photoreceptor cells ([1]; MNU 30 mg/kg, 7 d): 0.20 ± 0.42
Damage score of rat retinal photoreceptor cells ([1]; MNU 30 mg/kg, 10 d): 0
Damage score of rat retinal photoreceptor cells ([1]; MNU 35 mg/kg, 12 h): 0.20 ± 0.42
Damage score of rat retinal photoreceptor cells ([1]; MNU 35 mg/kg, 1 d): 0.60 ± 0.52
Damage score of rat retinal photoreceptor cells ([1]; MNU 35 mg/kg, 3 d): 0.80 ± 0.42
Damage score of rat retinal photoreceptor cells ([1]; MNU 35 mg/kg, 7 d): 0.40 ± 0.52
Damage score of rat retinal photoreceptor cells ([1]; MNU 35 mg/kg, 10 d): 0
Damage score of rat retinal photoreceptor cells ([1]; MNU 40 mg/kg, 12 h): 1.00 ± 0.67
Damage score of rat retinal photoreceptor cells ([1]; MNU 40 mg/kg, 1 d): 2.20 ± 1.03
Damage score of rat retinal photoreceptor cells ([1]; MNU 40 mg/kg, 3 d): 4.60 ± 3.10
Damage score of rat retinal photoreceptor cells ([1]; MNU 40 mg/kg, 7 d): 7.60 ± 6.29
Damage score of rat retinal photoreceptor cells ([1]; MNU 40 mg/kg, 10 d): 7.40 ± 6.44
Damage score of rat retinal photoreceptor cells ([1]; MNU 45 mg/kg, 12 h): 1.6 ± 0.52
Damage score of rat retinal photoreceptor cells ([1]; MNU 45 mg/kg, 1 d): 4.00 ± 2.31
Damage score of rat retinal photoreceptor cells ([1]; MNU 45 mg/kg, 3 d): 6.80 ± 5.27
Damage score of rat retinal photoreceptor cells ([1]; MNU 45 mg/kg, 7 d): 9.60 ± 5.95
Damage score of rat retinal photoreceptor cells ([1]; MNU 45 mg/kg, 10 d): 9.20 ± 6.20
Damage score of rat retinal photoreceptor cells ([1]; MNU 50 mg/kg, 12 h): 2.40 ± 1.43
Damage score of rat retinal photoreceptor cells ([1]; MNU 50 mg/kg, 1 d): 6.80 ± 5.27
Damage score of rat retinal photoreceptor cells ([1]; MNU 50 mg/kg, 3 d): 10.04 ± 5.06
Damage score of rat retinal photoreceptor cells ([1]; MNU 50 mg/kg, 7 d): 11.20 ± 5.27
Damage score of rat retinal photoreceptor cells ([1]; MNU 50 mg/kg, 10 d): 11.20 ± 5.27
initial dosage that could cause maximum decrease of a-wave and b-wave amplitudes of electroretinogram [2]: 40 mg/kg
lowest dosage which could shorten the a-wave and b-wave latent period of rats electroretinogram to the greatest extent [2]: 40 mg/kg
a-wave amplitude of electroretinogram ([2]; MNU 30 mg/kg, 12 h): 42.24 ± 7.71
a-wave latent period of electroretinogram ([2]; MNU 30 mg/kg, 12 h): 17.97 ± 2.50
b-wave amplitude of electroretinogram ([2]; MNU 30 mg/kg, 12 h): 195.8 ± 33.45
b-wave latent period of electroretinogram ([2]; MNU 30 mg/kg, 12 h): 73.7 ± 6.94
Number of Eyes with extinguished electroretinogram ([2]; MNU 30 mg/kg, 12 h): 0
a-wave amplitude of electroretinogram ([2]; MNU 30 mg/kg, 1 d): 34.10 ± 6.35
a-wave latent period of electroretinogram ([2]; MNU 30 mg/kg, 1 d): 17.82 ± 2.59
b-wave amplitude of electroretinogram ([2]; MNU 30 mg/kg, 1 d): 153.6 ± 28.76
b-wave latent period of electroretinogram ([2]; MNU 30 mg/kg, 1 d): 70.41 ± 6.11
Number of Eyes with extinguished electroretinogram ([2]; MNU 30 mg/kg, 1 d): 0
a-wave amplitude of electroretinogram ([2]; MNU 30 mg/kg, 3 d): 33.14 ± 9.15
a-wave latent period of electroretinogram ([2]; MNU 30 mg/kg, 3 d): 17.44 ± 2.40
b-wave amplitude of electroretinogram ([2]; MNU 30 mg/kg, 3 d): 132.0 ± 24.85
b-wave latent period of electroretinogram ([2]; MNU 30 mg/kg, 3 d): 67.42 ± 7.05
Number of Eyes with extinguished electroretinogram ([2]; MNU 30 mg/kg, 3 d): 0
a-wave amplitude of electroretinogram ([2]; MNU 30 mg/kg, 7 d): 41.11 ± 10.14
a-wave latent period of electroretinogram ([2]; MNU 30 mg/kg, 7 d): 17.66 ± 2.55
b-wave amplitude of electroretinogram ([2]; MNU 30 mg/kg, 7 d): 156.5 ± 34.85
b-wave latent period of electroretinogram ([2]; MNU 30 mg/kg, 7 d): 70.28 ± 6.02
Number of Eyes with extinguished electroretinogram ([2]; MNU 30 mg/kg, 7 d): 0
a-wave amplitude of electroretinogram ([2]; MNU 30 mg/kg, 10 d): 44.17 ± 11.13
a-wave latent period of electroretinogram ([2]; MNU 30 mg/kg, 10 d): 17.30 ± 2.24
b-wave amplitude of electroretinogram ([2]; MNU 30 mg/kg, 10 d): 188.7 ± 27.7
b-wave latent period of electroretinogram ([2]; MNU 30 mg/kg, 10 d): 70.31 ± 7.29
Number of Eyes with extinguished electroretinogram ([2]; MNU 30 mg/kg, 10 d): 0
a-wave amplitude of electroretinogram ([2]; MNU 35 mg/kg, 12 h): 40.34 ± 8.37
a-wave latent period of electroretinogram ([2]; MNU 35 mg/kg, 12 h): 17.32 ± 5.87
b-wave amplitude of electroretinogram ([2]; MNU 35 mg/kg, 12 h): 185.3 ± 23.41
b-wave latent period of electroretinogram ([2]; MNU 35 mg/kg, 12 h): 73.61 ± 6.37
Number of Eyes with extinguished electroretinogram ([2]; MNU 35 mg/kg, 12 h): 0
a-wave amplitude of electroretinogram ([2]; MNU 35 mg/kg, 1 d): 33.20 ± 12.11
a-wave latent period of electroretinogram ([2]; MNU 35 mg/kg, 1 d): 16.98 ± 2.46
b-wave amplitude of electroretinogram ([2]; MNU 35 mg/kg, 1 d): 107.52 ± 17.38
b-wave latent period of electroretinogram ([2]; MNU 35 mg/kg, 1 d): 73.12 ± 6.69
Number of Eyes with extinguished electroretinogram ([2]; MNU 35 mg/kg, 1 d): 0
a-wave amplitude of electroretinogram ([2]; MNU 35 mg/kg, 3 d): 30.38 ± 9.61
a-wave latent period of electroretinogram ([2]; MNU 35 mg/kg, 3 d): 16.83 ± 2.62
b-wave amplitude of electroretinogram ([2]; MNU 35 mg/kg, 3 d): 104.88 ± 21.83
b-wave latent period of electroretinogram ([2]; MNU 35 mg/kg, 3 d): 68.15 ± 6.68
Number of Eyes with extinguished electroretinogram ([2]; MNU 35 mg/kg, 3 d): 0
a-wave amplitude of electroretinogram ([2]; MNU 35 mg/kg, 7 d): 36.75 ± 7.28
a-wave latent period of electroretinogram ([2]; MNU 35 mg/kg, 7 d): 17.77 ± 2.25
b-wave amplitude of electroretinogram ([2]; MNU 35 mg/kg, 7 d): 135.44 ± 22.58
